From patent US12358921B2, “Antiviral heterocyclic compounds” (priority 2022, dated 2025)

What was measured:
hMPV A2 TN/94-49 = test: HMPV antiviral assay Method 2 (LLC-MK2 cells with CP-100-356, ATP-Lite); type: cell-based; settings: hMPV A2 TN/94-49, LLC-MK2 cells, 4 μM CP-100-356, Method 2
Protocol: In vitro HMPV antiviral activity was evaluated using the clinical isolate A2 strain TN 94-49 (obtained from Dr. John Williams, Vanderbilt University, Tennessee) and LLC-MK2 cells (Millipore Sigma CB_85062804), an immortalized kidney epithelial cell line from Macaca mulatta. Compounds were resuspended in dimethyl sulfoxide (DMSO) at 10 mM, serially diluted and added to a 384-well source plate. Subsequently, the compounds were diluted and transferred onto 384-well assay plates using the Echo-650 automated liquid handling system (Beckman Coulter, Indiana). The test compounds were assessed in duplicate at a top concentration of 200 nM followed by 2.5-fold serial dilutions to give a total of 10 concentration points. DMSO control wells were also included on the assay plates and were either infected or not, acting as positive and negative controls. A2 TN 94-49 virus infections were performed in-suspension with LLC-MK2 cells. The cells were washed twice with PBS and removed from the cell-culture flask with 0.25% trypsin-EDTA (Thermo Fisher Scientific, MA). The trypsin-EDTA was inactivated by resuspending in 2% fetal bovine serum (FBS) and OptiMEM (ThermoFisher Scientific, MA) containing 1% antibiotic-antimycotic. Cells were pelleted by centrifuging for 5 minutes at 800 rpm, the supernatant was removed, and cells were re-suspended and washed in PBS plus 100 μg/mL CaCl2). This step was performed twice. Cells were then re-suspended in serum-free (SF)-OptiMEM containing 4 μg/mL TPCK-Trypsin (Sigma Aldrich, MO), 1% antibiotic-antimycotic (ThermoFisher Scientific, MA), 100 μg/mL CaCl2), and 4 μM of CP-100-356, a P-glycoprotein inhibitor. Cells were counted and seeded at a density of 5,000 cells/well, 12.5 μL/well. Virus infections were done at a multiplicity of infection (MOI) of 0.16 with 12.5 μL added per well. Virus infections were performed in infection media which contained SF-OptiMEM, 100 μg/mL CaCl2) and 1% antibiotic-antimycotic. HMPV viral stocks are suspended in infection media+5% glycerol, thus an equal volume of infection media+5% glycerol was added to uninfected wells to equalize the final % glycerol across all wells of the assay plate. The final concentration of TPCK-trypsin was 2 μg/mL. The final concentration of CP-100-356 was 2 μM. The assay plates were incubated at 37° C., 5% CO2 for 7 days. After 7 days incubation, 12.5 μL of ATP-Lite (PerkinElmer, MA) was added to each well and the raw luminescence values were determined using the Envision 2104 (Perkin Elmer, MA). The average of the raw luminescence values for the cells and virus only positive control wells was subtracted from all conditions tested and the percent cell health was determined by dividing these values by the average of the cells only negative control wells. EC50 values were then calculated by non-linear regression using a four-parameter curve logistic equation. The curve fit model employed was XLFit Dose Response One Site Model 200: y=(A+(B/(1+((x/C)^D)))), where A is the minimum y value, B is the maximum y value, C is the log EC50value, and D is the slope factor.

[1] = tested on: HUMAN RSV-A (“LONG” STRAIN); test: RSV-A assay (CPE, ATPlite) in Hep-2 cells; type: cell-based; settings: human respiratory syncytial virus, 120 h, MOI 0.1, 5-day incubation
Text: Methods for RSV-A Assay Hep-2 cells, (originally derived from tumors grown in irradiated-cortisonised weanling rats that had been injected with epidermoid carcinoma tissue from the larynx of a person, but later found to be indistinguishable from HeLa cells by PCR DNA analysis), were used for the culturing of genotype A, “Long” strain RSV. Flasks were inoculated with RSV and viral stocks were collected once cytopathic effect (CPE) was greater than 90%. Viral stocks in 25% sucrose media were snap frozen using liquid nitrogen to increase viral stability. Viral stock titers were quantified by tissue culture infectious dose 50% (TCID50) using 8,000 cells per well and 3-fold viral dilutions across a 96-well plate, cultured for 4 days. Viral stock titers were also quantified by a plaque forming unit assay, as described elsewhere.
Following extensive parameter testing, the final assay is run as follows: Hep-2 cells are seeded into the inner 60 wells of a 96-well plate at 8,000 cells per well in a volume of 50 μL using Growth Media (DMEM without phenol red, 1% L-Glut, 1% Penn/Strep, 1% nonessential amino acids, 10% heat-inactivated FBS). 2-fold serial dilutions of control and test compounds are added to the wells in duplicate in a total volume of 25 μL. Viral stock is then added to the wells at a multiplicity of infection (MOI) of 0.1 in a volume of 25 μL, bringing the total volume of each well to 100 μL. The MOI is calculated using the PFU/mL, or TCID50 if unavailable. Each 96-well plate has a control column of 6 wells with cells and virus but no compound (negative control, max CPE), a column with cells but no compound or virus (positive control, minimum CPE), and a column with no cells or virus or compound (background plate/reagent control). The control wells with cells but no virus are given an additional 25 μL of growth media containing an equal quantity of sucrose as those wells receiving the viral stock in order to keep consistent in media and volume conditions. The outer wells of the plate are filled with 125 μL of moat media (DMEM, 1% Penn/Strep) to act as a thermal and evaporative moat around the test wells. Following a 5-day incubation period, the plates are read using ATPlite (50 uL added per well), which quantifies the amount of ATP (a measure of cell health) present in each well. Assay plates are read using the Envision luminometer. […] EC50 ranges are as follows: A<0.2 μM; B>0.2 μM.

SMILES | EC50 (hMPV A2 TN/94-49) | EC50 [1]
C[C@]1(C(N)=O)COc2c1cc([C@@](O)(CNC(=O)c1cc(OC3CC3)c3ncc(Cl)cc3c1)c1ccccc1)nc2-c1cc(F)c(F)cc1F [Example 197] | < 200 nM | < 200 nM
COc1cc(C(=O)NC[C@@](O)(c2ccccc2)c2cc3c(c(-c4cc(F)c(F)cc4F)n2)OC[C@]3(C)C(N)=O)cc2cc(Cl)cnc12 [Example 198] | < 200 nM | < 200 nM
COc1cc(C(=O)NC[C@@](O)(c2cccc(F)n2)c2cc3c(c(-c4cc(Cl)c(F)cc4F)n2)OC[C@]3(C)C(N)=O)cc2cn(C3CC3)nc12 [Example 203] | < 200 nM | < 200 nM
COc1cc(C(=O)NC[C@@](O)(c2cccc(F)n2)c2cc3c(c(-c4cc(Cl)c(F)cc4F)n2)OC[C@]3(C)C(N)=O)cc2cn(C3(F)CC3)nc12 [Example 204] | < 200 nM | < 200 nM
COc1cc(C(=O)NC[C@@](O)(c2cccc(F)n2)c2cc3c(c(-c4cc(Cl)c(F)cc4F)n2)OC[C@]3(C)C(N)=O)cc2cn(C(F)F)nc12 [Example 205] | < 200 nM | < 200 nM
COc1cc(C(=O)NC[C@@](O)(c2cccc(F)n2)c2cc3c(c(-c4cc(Cl)c(F)cc4F)n2)OC[C@]3(C)C(N)=O)cc2cc(C3CC3)nn12 [Example 206] | < 200 nM | < 200 nM
C[C@]1(C(N)=O)COc2c1cc([C@@](O)(CNC(=O)c1ccc3nc(C4(F)CC4)oc3c1)c1ccccc1)nc2-c1cc(Cl)c(F)cc1F [Example 219] | < 200 nM | < 200 nM
[2H]c1nc2c(OC)cc(C(=O)NC[C@@](O)(c3ccccc3)c3cc4c(c(-c5cc(Cl)c(F)cc5F)n3)OC[C@]4(C)C(N)=O)cc2cc1Cl [Example 220] | < 200 nM | < 200 nM
COc1cc(C(=O)NC[C@@](O)(c2ccccc2)c2cc3c(c(-c4cc(Cl)c(F)cc4F)n2)OC[C@]3(C)C(N)=O)cc2oc(N)nc12 [Example 237] | < 200 nM | < 200 nM
COc1cc(C(=O)NC[C@@](O)(c2ccccc2)c2cc3c(c(-c4cc(Cl)c(F)cc4F)n2)OC[C@]3(C)C(N)=O)cc2oc(C3(F)CC3)nc12 [Example 241] | < 200 nM | < 200 nM
COc1cc(C(=O)NC[C@@](O)(c2cccc(F)c2)c2cc3c(c(-c4ccc5c(c4Cl)OC(F)(F)O5)n2)OC[C@]3(C)C(N)=O)cc2oc(C)nc12 [Example 285] | < 200 nM | < 200 nM
COc1cc(C(=O)NC[C@@](O)(c2cccc(F)c2)c2cc3c(c(-c4ccc5c(c4Cl)OC(F)(F)O5)n2)OC[C@]3(C)C(N)=O)cc2oc(C3CC3)nc12 [Example 286] | < 200 nM | < 200 nM
COc1cc(C(=O)NC[C@@](O)(c2ccccc2)c2cc3c(c(-c4cc(C(F)F)c(F)cc4F)n2)OC[C@]3(C)C(N)=O)cc2cn(C(F)F)nc12 [Example 300] | < 200 nM | < 200 nM
COc1cc(C(=O)NC[C@@](O)(c2cccc(F)c2)c2cc3c(c(-c4cc(C(F)(F)F)c(F)cc4F)n2)OC[C@]3(C)C(N)=O)cc2cn(C(F)F)nc12 [Example 301] | < 200 nM | < 200 nM
COc1cc(C(=O)NC[C@@](O)(c2ccccc2)c2cc3c(c(-c4cc(C(F)(F)F)c(F)cc4F)n2)OC[C@]3(C)C(N)=O)cc2cn(C3CC3)nc12 [Example 302] | < 200 nM | < 200 nM
COc1cc(C(=O)NC[C@@](O)(c2ccccc2)c2cc3c(c(-c4cc(C(F)(F)F)c(F)cc4F)n2)OC[C@]3(C)C(N)=O)cc2cn(C3(F)CC3)nc12 [Example 303] | < 200 nM | < 200 nM

The remaining lines, values ahead:

EC50 (hMPV A2 TN/94-49) | EC50 [1] | SMILES
< 200 nM | < 200 nM | COc1cc(C(=O)NC[C@@](O)(c2ccccc2)c2cc3c(c(-c4cc(C(F)(F)F)c(F)cc4F)n2)OC[C@]3(C)C(N)=O)cc2cn(C(F)F)nc12 [Example 304]
< 200 nM | < 200 nM | COc1cc(C(=O)NC[C@@](O)(c2ccccc2)c2cc3c(c(-c4cc(C(F)(F)F)c(F)cc4F)n2)OC[C@]3(C)C(N)=O)cc2oc(C3CC3)nc12 [Example 305]
> 200 nM | < 200 nM | C[C@]1(C(N)=O)COc2c1cc([C@@](O)(CNC(=O)c1ccc3nc(C4CC4)oc3c1)c1ccccc1)nc2-c1cc(C(F)(F)F)c(F)cc1F [Example 307]
> 200 nM | < 200 nM | C[C@]1(C(N)=O)COc2c1cc([C@@](O)(CNC(=O)c1ccc3nc(C4CC4)oc3c1)c1cccc(F)c1)nc2-c1cc(C(F)(F)F)c(F)cc1F [Example 308]
< 200 nM | < 200 nM | C[C@]1(C(N)=O)COc2c1cc([C@@](O)(CNC(=O)c1cc(OC3CC3)c3ncc(Cl)cc3c1)c1ccccc1)nc2-c1ccc(F)c(Cl)c1Cl [Example 313]
< 200 nM | < 200 nM | COc1cc(C(=O)NC[C@@](O)(c2cccc(F)c2)c2cc3c(c(-c4cccc(Cl)c4Cl)n2)OC[C@]3(C)C(N)=O)cc2cc(C3CC3)nn12 [Example 336]
< 200 nM | < 200 nM | COc1cc(C(=O)NC[C@@](O)(c2cccc(F)c2)c2cc3c(c(-c4cccc(Cl)c4Cl)n2)OC[C@]3(C)C(N)=O)cn2cc(C3CC3)nc12 [Example 337]
< 200 nM | < 200 nM | C[C@]1(C(N)=O)COc2c1cc([C@@](O)(CNC(=O)c1cc(OC3CC3)c3nn(C4(F)CC4)cc3c1)c1cccc(F)c1)nc2-c1cccc(Cl)c1Cl [Example 339]
< 200 nM | < 200 nM | COc1cc(C(=O)NC[C@@](O)(c2cccc(F)n2)c2cc3c(c(-c4ccc(F)c(Cl)c4Cl)n2)OC[C@]3(C)C(N)=O)cc2cn(C3CC3)nc12 [Example 340]
> 200 nM | < 200 nM | COc1cc(C(=O)NC[C@@](O)(c2ccccc2)c2cc3c(c(-c4cc(Cl)c(F)cc4F)n2)OC[C@]3(C)C(N)=O)cc2cc(Cl)c(F)nc12 [Example 342]
> 200 nM | < 200 nM | COc1cc(F)c(-c2nc([C@@](O)(CNC(=O)c3cc(OC)c4nn(C5(F)CC5)cc4c3)c3ccccc3)cc3c2OC[C@]3(C)C(N)=O)cc1F [Example 363]
> 200 nM | < 200 nM | COc1cc(-c2nc([C@@](O)(CNC(=O)c3cc(OC)c4nn(C5(F)CC5)cc4c3)c3ccccc3)cc3c2OC[C@]3(C)C(N)=O)c(F)cc1F [Example 364]
> 200 nM | < 200 nM | COc1cc(C(=O)NC[C@@](O)(c2ccccc2)c2cc3c(c(-c4cccc5c4OCO5)n2)OC[C@]3(C)C(N)=O)cc2cn(C3(F)CC3)nc12 [Example 366]
< 200 nM | < 200 nM | COc1cc(C(=O)NC[C@@](O)(c2ccccc2)c2cc3c(c(-c4cccc(F)c4Cl)n2)OC[C@]3(C)C(N)=O)cc2cn(C3(F)CC3)nc12 [Example 368]
